The results in this text go back to US7541367B2, “3-benzoimidazolyl-pyrazolopyridines useful in treating kinase disorders” (Janssen Pharmaceutica, N.V., priority 2005, dated 2009).

In assay [1] the target is T1, Aurora-A (Mus musculus, UniProt P97477).
T1 construct: polyhistidine (N)
T1 sequence (P97477 1-395): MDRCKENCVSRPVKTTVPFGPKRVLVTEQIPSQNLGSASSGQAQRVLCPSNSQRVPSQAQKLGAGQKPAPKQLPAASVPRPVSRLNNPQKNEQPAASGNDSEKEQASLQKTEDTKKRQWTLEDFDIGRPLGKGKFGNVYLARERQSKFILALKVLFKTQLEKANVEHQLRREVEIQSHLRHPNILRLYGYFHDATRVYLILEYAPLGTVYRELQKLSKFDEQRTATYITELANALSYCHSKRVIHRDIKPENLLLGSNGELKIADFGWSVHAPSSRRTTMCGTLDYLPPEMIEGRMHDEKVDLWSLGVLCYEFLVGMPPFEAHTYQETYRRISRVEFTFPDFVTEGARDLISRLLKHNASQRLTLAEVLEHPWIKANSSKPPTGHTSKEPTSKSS
As to the kind of experiment: Aurora-A kinase screening assay (33P-ATP FlashPlate).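 Further: His-tagged mouse Aurora-A phosphorylating a biotinylated peptide captured on streptavidin plates, read as 33P uptake by scintillation counting, 1% DMSO, inhibition scaled between per-plate maximum and minimum signals.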 In kind it is biochemical. The settings on record: 10 μM ATP, 1 hr at 30° C.

Assay [2] has as its system A375 malignant melanoma. The experiment in a line: Cell Proliferation Inhibition Assay (14C-thymidine incorporation), A375.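 Further: proliferation measured by radiolabelled thymidine uptake into new DNA, counted in scintillating 96-well plates, compound-treated wells compared with DMSO-only control wells.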 In kind it is cell-based. The settings on record: Homo sapiens, A-375, A375 cells. Background: Incorporation of labelled thymidine or its analogues reports DNA synthesis.
Assay [3] addresses T2, CDK1 (Homo sapiens, UniProt P06493).
T2 construct: purchased New England Biolabs, Beverly, Mass; 6020; host or cells: insect cells
The experiment in a line: CDK-1 kinase screening assay (33P-ATP FlashPlate). In kind it is biochemical. As to conditions: human CDK1 with cyclin B; 10 μM ATP; 1 hr at 30° C.

The subject of assay [4] is HeLa cervical adenocarcinoma. As to the kind of experiment: Cell Proliferation Inhibition Assay (14C-thymidine incorporation), HeLa.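 Further: test compound in DMSO added to cells seeded in scintillating 96-well plates, DMSO-only wells as control, uptake of methyl 14C-thymidine into new DNA counted.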 In kind it is cell-based. As to conditions: Homo sapiens, HeLa, HeLa cells.

SMILES strings stand for the structures.

T2 sequence (P06493 whole entry): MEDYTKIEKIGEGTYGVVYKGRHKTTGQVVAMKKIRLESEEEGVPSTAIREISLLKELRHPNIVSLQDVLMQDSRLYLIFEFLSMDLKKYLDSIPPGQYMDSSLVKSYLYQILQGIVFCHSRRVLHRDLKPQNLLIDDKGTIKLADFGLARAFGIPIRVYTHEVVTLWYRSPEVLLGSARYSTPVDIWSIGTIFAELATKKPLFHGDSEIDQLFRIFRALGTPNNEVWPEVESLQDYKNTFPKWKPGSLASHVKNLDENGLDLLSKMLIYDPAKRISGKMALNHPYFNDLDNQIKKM
T2 sequence (P14635 whole entry partner): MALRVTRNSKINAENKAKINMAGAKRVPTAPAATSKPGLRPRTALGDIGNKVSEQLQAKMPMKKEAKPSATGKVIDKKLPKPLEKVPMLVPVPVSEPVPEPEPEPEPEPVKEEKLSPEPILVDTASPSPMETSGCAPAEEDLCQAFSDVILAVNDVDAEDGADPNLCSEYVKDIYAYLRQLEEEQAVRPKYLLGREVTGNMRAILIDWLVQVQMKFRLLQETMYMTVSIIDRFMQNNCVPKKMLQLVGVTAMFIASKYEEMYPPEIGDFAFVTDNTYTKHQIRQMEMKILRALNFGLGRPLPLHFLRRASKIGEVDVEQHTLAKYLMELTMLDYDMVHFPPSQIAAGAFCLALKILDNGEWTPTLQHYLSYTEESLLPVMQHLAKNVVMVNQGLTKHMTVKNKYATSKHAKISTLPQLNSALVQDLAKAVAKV

With `CNCc1cncc(-c2cnc3[nH]nc(-c4nc5cc(OC(F)(F)F)ccc5[nH]4)c3c2)c1` [Cpd 96, methyl-{5-[3-(5-trifluoromethoxy-1H-benzoimidazol-2-yl)-1H-pyrazolo[3,4-b]pyridin-5-yl]-pyridin-3-ylmethyl}-amine], the IC50 is approximately 1000 nM in assay [1], 47.1 nM in assay [2] and 0.9 to 1.3 nM in assay [3].
For the compound `CCNCc1cncc(-c2cnc3[nH]nc(-c4nc5cc(OC)ccc5[nH]4)c3c2)c1` [Cpd 101, ethyl-{5-[3-(5-methoxy-1H-benzoimidazol-2-yl)-1H-pyrazolo[3,4-b]pyridin-5-yl]-pyridin-3-ylmethyl}-amine], the half-inhibitory concentration (IC50) in assay [1] stood at 356 nM; in assay [4], 34.2 nM; in assay [2], 101 nM; in assay [3], 0.8 nM.

For orientation: IC50 means the midpoint of a concentration-inhibition curve. Read a low IC50 as inhibition by little substance.
